Test system: promyelocyte leukemia cell strain HL-60
Assay: Test for induction of cell differentiation in HL-60 cells (NBT reduction ability)
Type: cell-based
Settings: for Ratio of cells for which differentiation was induced by each compound alone (%): calculated from NBT reduction ability; for Ratio of cells for which differentiation was induced by each compound in combination with 1 × 10^−7 M of HX630 (%): in combination with 1×10^−7 M HX630 (retinoid synergist)
Protocol: For each of the compounds of the examples, action for inducing cell differentiation was examined for each alone and in combination with 1×10^−7 M of HX630. According to the methods described in Japanese Patent Unexamined Publication (KOKAI) No. (Sho)61-76440/1986, differentiation of the cells of promyelocyte leukemia cell strain HL-60 into granulocytic series cells was determined based on morphological change and measurement of ability to reduce nitro blue tetrazolium (NBT). The ratios (%) of differentiated cells shown in the following table are those calculated from NBT reduction ability. HX630 is a retinoid synergist that enhances actions of retinoids, and the concentrations of −8, −7 and −6 mean that each compound was added at concentrations of 1×10^−8 M, 1×10^−7 M and 1×10^−6 M, respectively.

[1] = compound concentration -6 (1×10^−6 M)
[2] = compound concentration -7 (1×10^−7 M)
[3] = compound concentration -8 (1×10^−8 M)

SMILES	Ratio of cells for which differentiation was induced by each compound alone (%) (concentration -6 (1×10^−6 M))	Ratio of cells for which differentiation was induced by each compound alone (%) (concentration -7 (1×10^−7 M))	Ratio of cells for which differentiation was induced by each compound alone (%) (concentration -8 (1×10^−8 M))	Ratio of cells for which differentiation was induced by each compound in combination with 1 × 10^−7 M of HX630 (%) [1] [%]	Ratio of cells for which differentiation was induced by each compound in combination with 1 × 10^−7 M of HX630 (%) [2] [%]	Ratio of cells for which differentiation was induced by each compound in combination with 1 × 10^−7 M of HX630 (%) [3] [%]
CC1(C)CCC(C)(C)c2cc(Nc3ccc(O)c(=O)cc3)ccc21 [Tp10]	3.3	2.9	6.8	5.6	2.9	3
Cc1cc2c(cc1Nc1ccc(O)c(=O)cc1)C(C)(C)CCC2(C)C [Tp20]	2.7	1.8	2.1	2.4	3.7	4.6
Cc1cc2c(cc1N(C)c1ccc(O)c(=O)cc1)C(C)(C)CCC2(C)C [Tp22]	18	2.4	2.8	78	3.3	2.1
CC1(C)CCC(C)(C)c2cc(NC(=O)Nc3ccc(O)c(=O)cc3)ccc21 [Tp30]	1.2	1.5	1.3	20	2.3	2.5
CC1(C)CCC(C)(C)c2cc(S(=O)(=O)Nc3ccc(O)c(=O)cc3)ccc21 [Tp40]	2.3	0.9	1.3	2	2.5	1.8
CC(C)(C)c1cc(C(=O)Nc2ccc(O)c(=O)cc2)cc(C(C)(C)C)c1 [Tp50]	5.1	2.8	1.6	–	–	–
O=C(Nc1ccc(O)c(=O)cc1)c1cc(C(F)(F)F)cc(C(F)(F)F)c1 [Tp60]	2.1	1.3	0.8	37.8	21.2	2.2
CC1(C)CCC(C)(C)c2cc(C(=O)Nc3ccc(O)c(=O)cc3)ccc21 [Tp80]	21	26	7	79	85	82
CN(C(=O)c1ccc2c(c1)C(C)(C)CCC2(C)C)c1ccc(O)c(=O)cc1 [Tp82]	1.4	1.2	0.5	42	7	1.9
Cc1cc2c(cc1C(=O)Nc1ccc(O)c(=O)cc1)C(C)(C)CCC2(C)C [Tp84]	26	5	0.7	90	89	15
CC1(C)CCC(C)(C)c2cc(C=CC(=O)Nc3ccc(O)c(=O)cc3)ccc21 [Tp90]	67	0.9	0.7	43	2.1	1.5
CC1(C)CCC(C)(C)c2cc(C=CC(=O)Nc3ccc(Cl)c(=O)cc3)ccc21 [Tp93]	9	0.8	0.6	40	0.8	3.6
CC1(C)CCC(C)(C)c2cc(C=CC=CC(=O)Nc3ccc(O)c(=O)cc3)ccc21 [Tp95]	0.3	0.5	0.5	1.7	0.5	0.8
COc1ccc(C#Cc2ccc3c(c2)C(C)(C)CCC3(C)C)ccc1=O [Tp141]	6.4	3.3	2.2	84	7	4.1
Cc1cc2c(cc1C#Cc1ccc(O)c(=O)cc1)C(C)(C)CCC2(C)C [Tp145]	70	76	73	77	75	82
CC1(C)CCC(C)(C)c2cc(C#Cc3ccc(NN)c(=O)cc3)ccc21 [Tp146]	69	2.2	3.6	83	91	66
CC1(C)CCC(C)(C)c2cc(C#Cc3cccc(=O)cc3)ccc21 [Tp149]	40	4	1.4	40	85	3.5
CC1(C)CCC(C)(C)c2cc(CCc3ccc(O)c(=O)cc3)ccc21 [Tp150]	60	5.4	1.5	50	80	9
CC(C)(C)c1cc(C#Cc2ccc(O)c(=O)cc2)cc(C(C)(C)C)c1 [Tp155]	62.5	24	2.7	78	89	68
CC1(C)CCC(C)(C)c2cc(N=Nc3ccc(O)c(=O)cc3)ccc21 [Tp160]	32	34.4	18.5	90	84	81

From patent US20040082550A1, “Tropolone derivative” (priority 2000, published 2004)
